This is an account of results in a melting point compilation (Tetko et al.; mined from patent text by program, amines drawn as free bases though some values may be those of a salt).

The term melting point denotes the temperature of the solid-liquid transition. `C[C@H]1C=CC2=C[C@@H](O)C[C@H](O)[C@@H]2[C@H]1CC[C@@H]1C[C@@H](O)CC(=O)O1` displayed a melting point of 161 to 163 °C.
For `CCCCCCCN1C(=O)C2CC(c3ccc(N)cc3)(C2)C1=O`, the melting point fell in the range of 69 to 71 °C.
The figure for `COc1ccc(S(=O)(=O)C2(C(=O)O)CCN(CC=C(C)C)CC2)cc1` is 142 to 145 °C.
Regarding `CCCCOCCOc1ccc(-c2ccc(N3CCOCC3)c(C=CC(=O)O)c2)cc1`, the melting point was 155 to 157 °C.
The figure for `O=C(O)CCC(=O)c1ccc(CCNS(=O)(=O)CCc2ccc(Cl)cc2)cc1` is 112 °C.
Molecule `CCCCCCOCOc1c(C(C)(C)C)cc(-c2ccc(C#N)c(C#N)c2)cc1C(C)(C)C` displayed a melting point of 106 to 107 °C.
`NC(=O)COc1cccc(CCNS(=O)(=O)c2ccc(Br)cc2)c1` showed a melting point of 115 to 116 °C.
Under `N[C@@H](Cc1ccccc1)C(=O)N(CC1CC(Br)=NO1)C(=O)OCc1ccccc1` (some centres undefined) stands 122 to 125 °C.
The figure for `O=C(NCc1ccccc1C(F)(F)F)c1ccc2cnccc2n1` is 125 to 127 °C; for `O=C(O)CCc1ccc(OCc2ccc(CN(CCc3ccccc3)c3nc(-c4ccccc4)cs3)cc2)cc1` it is 114 to 115 °C.
`Cn1c(Cc2ccc(Cl)c(Oc3cc(C#N)cc(C#N)c3)c2F)nn(COC(=O)CCC(=O)O)c1=O` came in with a melting point of 142 to 143 °C.
In turn, `COc1cc(NC(=O)Nc2ccccc2C)cc(OC)c1-c1ccc(C[C@H](NC(=O)c2c(Cl)cccc2Cl)C(=O)O)cc1` returned a melting point of 194 to 195 °C.
With `COC(=O)c1cc(N)nn1C`, the melting point lay in the range of 114 to 118 °C.
Molecule `CC1=Cc2cc(Br)cc(S(N)(=O)=O)c2OS1(=O)=O` returned a melting point of 243 to 245 °C.
Under `CSc1nc(NCC=C(C)C)c2ccnc-2[nH]1` stands 155 to 156 °C; under `CC(O)CN(CC(C)O)C1CC(C)(C)NC(C)(C)C1` (centres undefined), 97 to 102 °C.
Under `Cc1ncccc1C(C#N)N1CCN(C(=O)Cc2ccc(OCc3ccc4ccccc4n3)cc2)CC1` (centres undefined) stands 64 to 68 °C; under `Cc1nc2c(OCc3ccccc3)cc(C(=O)N(C)C)cn2c1C`, 160 °C.
The figure for `CC(C)(C)c1cc(-c2ccc(F)cc2)cc(C(C)(C)C)c1O` is 97 to 99 °C.
For the molecule `NC(CO)COc1ccc(Oc2ccccc2)cc1` (centres undefined), the melting point is 61.9 °C.
Under `CCC(OCC(F)F)c1ccc(Cl)c2nc3n(c12)CCCN3c1ccc(OC)nc1C` (centres undefined) stands 130 to 132 °C; under `NCC1Cc2cc(-c3cccc(C(F)(F)F)c3)cc(F)c2O1` (centres undefined), over 250 °C.
`Oc1cc(O)cc(OCc2ccccc2)c1` gave a melting point of 85 to 86 °C.
The figure for `Nc1ncnc2c1c(-c1ccc(Oc3ccc(F)cc3)cc1)cn2C1CCOC1` (centres undefined) is 198 to 199 °C; for `COCC(=O)Nc1ccc2ncnc(Nc3cccc(I)c3)c2c1` it is 159 to 163 °C.
Under `CC(=O)c1ccc(OCCCCOc2ccccc2)cc1` stands 104 to 106 °C.
In turn, `COC(=O)C(Cc1ccccc1)N1CC(N2C(=O)c3ccccc3C2=O)C1=O` (centres undefined) returned a melting point of 153 to 156 °C.
`CCOP(=O)(CNC(=O)C[C@H]1O[C@H](c2cccc(OC)c2OC)c2cc(Cl)ccc2N(CC(C)(C)CO)C1=O)OCC` displayed a melting point of 138 to 140 °C.
Take `CC(=O)OCC(=O)C1C(C)CC2C3CC(F)C4=CC(=O)C=CC4(C)C34OC4CC21C` (centres undefined): the melting point was 154 to 162 °C.
The figure for `COC(=O)c1c(O)c(Br)c(Br)n1C` is 128 to 130 °C; for `CNC(=O)c1cccc(F)c1Nc1nc(Nc2ccc3c(c2)CCCC(=O)N3CCOC)ncc1Br` it is 191 to 193 °C.
The figure for `Cc1ccc(N(c2ccccc2)c2ccc(-c3ccc(N(c4ccccc4)c4ccc(C)cc4)cc3)cc2)cc1` is 163 to 164 °C; for `O=C1CCSC(=S)N1c1c(F)c(F)c(F)c(F)c1F` it is 164 °C; for `COC(=O)CCc1cccc(-c2ccccc2)c1` it is 29 to 30 °C.
As to `N#Cc1ccccc1SC1SCC(O)C(O)C1O` (centres undefined), the melting point was in the range of 118 to 119 °C.
The figure for `COc1cc(Oc2cccc(C(F)(F)F)c2)nc(C(=O)NO)c1` is 120 to 122 °C; for `CCOCCOc1ccccc1COc1ccc2c(c1)C=C(C(=O)Nc1ccc(CN(C)C3CCOCC3)cc1)CCS2(=O)=O` it is 132 to 136 °C.
As to `O=C1NC(C2CCCCC2)C1O` (centres undefined), the melting point stood at 140 °C.
In the case of `N#Cc1c(Cc2ccccc2)nn(C2CCCC2)c1N`, the melting point lay in the range of 180 to 182 °C.
Under `COC(=O)C(=C(CBr)CBr)N1CC(N2C(=O)c3ccccc3C2=O)C1=O` (centres undefined) stands 128 to 131 °C.
Under `CC(NC(=NC#N)Nc1cccnc1)c1ccccc1` (centres undefined) stands 185 to 187 °C; under `O=C(NCc1ccccc1)[C@@H]1CCCCN1`, 103 to 104 °C.
The figure for `CN(C)CCOc1ccc(C=O)c(O)c1` is 82 to 83 °C.
Regarding `COc1c2nc3ccccc3sc-2c(C)c(=O)c1OC`, the melting point was determined as 138 °C.
Under `COCc1ccc2c(c1S(N)(=O)=O)S(=O)(=O)C(C)C2` (centres undefined) stands 115 °C.
In the case of `Cc1nc(C(C)O)c[nH]1` (centres undefined), the melting point fell in the range of 107 to 111 °C.
The figure for `COc1cc2c(cc1OC)CN(CCCCc1ccc(NC(=O)c3cccc4c(=O)cc(-c5ccccc5)oc34)cc1)CC2` is 117 to 120 °C.
`Cc1ccc(-c2cc(S(=O)(=O)c3ccc(N)cc3)cc(N3CCCC3)n2)cc1` registered a melting point of 250 to 251 °C.
As to `C#CCOc1cc(-c2ncc(C(F)(F)F)c(C)c2Cl)c(F)cc1Cl`, the melting point was in the range of 95 to 98 °C.
Turning to `COC(=O)c1ccc(-c2ccc3cc(OCc4ccccc4)c(C45CC6CC(CC(C6)C4)C5)cc3c2)cc1`, the melting point lay within 170 to 173 °C.
Under `CCN(c1ccc(C)c2cc(-c3ncc(C(C)O)s3)[nH]c12)S(=O)(=O)c1cccs1` (centres undefined) stands 152 to 153 °C.
In turn, `COc1ccc2c(c1)CCC1C2CCC2(C)C(NCCCCCCN)CCC12` (centres undefined) had a melting point of 93 to 94 °C.
Under `CCCc1nn(-c2ccc(C(F)(F)F)cn2)cc1CCCCOc1ccc(CCC(=O)O)c(C)c1` stands 105 to 107 °C.
As to `Nc1ccc(F)c(-c2ccc3ncccc3c2)c1F`, the melting point was 178 to 179 °C.
The figure for `CC1(C)OC(=O)C(Oc2ncnc3ccccc23)=C1c1ccc(S(C)(=O)=O)cc1` is 174 to 177 °C.
Molecule `CC(C)Oc1ccc(NC(=S)NCc2ccsc2)cc1` displayed a melting point of 80.5 to 81.5 °C.
Under `Cc1cc(C)nc(Oc2cccc(Oc3ncc(Cl)cn3)c2)n1` stands 142 °C.
Under `COc1ccc(CC2NC(=O)NC2=O)cc1OC1CCCC1` (centres undefined) stands 151 to 153 °C.
Under `CC(C)=CCSC1=C(O)CC(C)(C)CC1=O` stands 50.5 to 52 °C; under `CCOC(=O)c1cnc(Cl)c([N+](=O)[O-])c1NC`, 70 to 72 °C.
Molecule `CCCCN(CCCC)p1oc2c(C(C)(C)C)cc(C(C)(C)C)cc2c2cc(C(C)(C)C)cc(C(C)(C)C)c2o1` returned a melting point of 140 °C.
Under `CCCCN(CCCC)c1cc(=O)n(-c2ccc(S(=O)(=O)O)cc2)[nH]1` stands 267 to 269 °C.
The figure for `COCCOCn1c(Cl)c(C=O)c2ccccc21` is 52.5 to 54 °C; for `CP(C)(=O)OCc1ccccc1` it is 41 to 45 °C; for `COc1cc(F)nc(N)n1` it is 171 to 173 °C.
Under `CCCOC(=O)c1cc(=O)c(Sc2ccc(OC)cc2)co1` stands 91 to 93 °C; under `CC(C)c1ccc(-c2csc(-c3ccc(C(=O)O)cc3)n2)cc1`, 257 to 258 °C; under `COc1cc(CN2CCN(c3ccc(O)cc3)CC2)nc(-c2ccccc2)n1`, 166 to 167 °C.
`CCNc1c(C#N)cnn1-c1c(F)c(F)c(C(F)(F)F)c(F)c1F` registered a melting point of 168 °C.
Under `CCOC(=O)CN1CCN(C2=Nc3ccccc3Oc3ccc(Cl)cc32)CC1` stands 123 to 124 °C; under `N#CCCNC(=O)c1cccc(-c2cccc(Oc3cncc(Cl)c3)n2)c1`, 143 to 144 °C.
As to `Cc1nn(C)cc1C(=O)Nc1cccc2c1CCC2(C)C`, the melting point was 147 °C.
The figure for `COC(=O)CCSC(C)(C)C(NS(=O)(=O)c1ccc(Oc2ccc(F)cc2)cc1)C(=O)O` (centres undefined) is 123 to 124 °C; for `CCCCCCCCCCCCCCCCCCOc1ccc(NC(=O)c2ccc(OC(C)=O)cc2)cc1OCCCCCCCCCCCCCCCCCC` it is 107 °C; for `Cc1cc(Br)cnc1NCCCNC1=NS(=O)N=C1NCc1ccncn1` (centres undefined) it is 171 to 172 °C.
The figure for `CCCCCCCCCCc1ccc(NC(=O)c2cccc(-c3ccccc3)c2O)cc1` is 74 to 75 °C.
Molecule `C=CCc1cc(N2CCN(c3ccncc3)CC2)ccc1OCCCC(=O)OCC` registered a melting point of 53 to 55 °C.
The figure for `COc1cc(C(=O)N2CCCCc3cc(Cl)ccc32)ccc1NC(=O)N(C)C` is 230 to 232 °C.
The figure for `C#CCC#CCON1C(=O)c2ccccc2C1=O` is 134 to 135 °C.
For the molecule `Cc1cc(SCc2ccc(OCc3ccc(C(F)(F)F)cc3)cc2)ccc1OCC(=O)O`, the melting point came to 133 °C.
On to `O=C(Nc1cccc2c1CC(O)CC2)c1ccc(-c2ccc(F)c(F)c2)cc1` (centres undefined), for which the melting point is 210 to 213 °C.
As to `CN1C(=O)CCC2(C)c3ccc(C(c4ccccc4)c4ccccc4)cc3CCC12` (centres undefined), the melting point fell in the range of 145 to 146 °C.
Molecule `CCOC(=O)C1CCN(c2nc(CCl)c(C)s2)CC1` showed a melting point of 76 to 77 °C.
The molecule `FC(F)(F)Oc1ccc2nc(NC(=S)Nc3ccccc3)sc2c1` returned a melting point of 234 °C.
Under `O=C(c1ccc(O)cc1)c1c(-c2ccccc2)sc2ccccc12` stands 163 to 165 °C.
Under `CN(C)C(N)=Nc1ccccc1N1CCOCC1` stands 143 to 144 °C.
`Brc1ccc2sc3ccccc3c2c1` showed a melting point of 112 to 116 °C.
The figure for `FC(F)(F)c1csc(I)n1` is 35.5 to 36 °C; for `CC(C)CCC(O)C(CC1CCCCC1)NC(=O)C(Cc1c[nH]cn1)N(C)C(=O)C(Cc1ccccc1)NC(=O)N1CCOCC1` (centres undefined) it is 102 to 108 °C.
